Laboratory results as given in paper PMC4859410 (Pharmacogenetics and genomics, 2010).
Like-named read-outs stand apart in the source and are kept apart here.

Experiments:
OATP1A2 = biological target: T1, OATP1A2 (Homo sapiens, UniProt P46721); assay: Drug uptake in X. laevis oocytes injected with SLCO1A2; assay type: in vitro ADME; details: 1 µM (darunavir 3 µM), 18°C, 1hr, mean ± SD; for Drug uptake, OATP1A2: OATP1A2 cRNA injected oocytes; for Drug uptake, Water: water injected control oocytes (Table 1)
T1 sequence (P46721 1-670): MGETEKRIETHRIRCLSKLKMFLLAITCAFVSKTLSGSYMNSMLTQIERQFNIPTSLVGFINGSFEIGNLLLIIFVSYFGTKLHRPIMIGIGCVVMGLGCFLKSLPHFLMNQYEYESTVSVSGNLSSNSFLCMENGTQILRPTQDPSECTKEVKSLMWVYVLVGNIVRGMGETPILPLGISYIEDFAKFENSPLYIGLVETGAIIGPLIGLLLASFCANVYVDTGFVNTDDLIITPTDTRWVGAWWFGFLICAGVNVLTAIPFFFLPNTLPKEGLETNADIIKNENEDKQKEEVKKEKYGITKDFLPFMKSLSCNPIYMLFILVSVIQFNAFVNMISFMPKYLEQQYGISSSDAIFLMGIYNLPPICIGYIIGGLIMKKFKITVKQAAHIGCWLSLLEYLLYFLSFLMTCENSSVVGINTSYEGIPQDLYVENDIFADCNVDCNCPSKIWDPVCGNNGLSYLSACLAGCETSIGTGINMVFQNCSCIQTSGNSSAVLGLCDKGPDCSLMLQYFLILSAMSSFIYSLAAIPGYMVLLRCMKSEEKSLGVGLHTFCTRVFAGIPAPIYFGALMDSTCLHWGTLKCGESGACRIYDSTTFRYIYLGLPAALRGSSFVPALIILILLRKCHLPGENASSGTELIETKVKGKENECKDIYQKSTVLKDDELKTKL

OATP1B1 [1] = biological target: T2, OATP1B1 (Homo sapiens, UniProt Q9Y6L6); assay: Drug uptake in X. laevis oocytes injected with SLCO1B1; assay type: in vitro ADME; details: 1 µM (darunavir 3 µM), 18°C, 1hr, mean ± SD; for Drug uptake, OATP1B1: OATP1B1 cRNA injected oocytes; for Drug uptake, Water: water injected control oocytes (Table 2)
T2 sequence (Q9Y6L6 1-691): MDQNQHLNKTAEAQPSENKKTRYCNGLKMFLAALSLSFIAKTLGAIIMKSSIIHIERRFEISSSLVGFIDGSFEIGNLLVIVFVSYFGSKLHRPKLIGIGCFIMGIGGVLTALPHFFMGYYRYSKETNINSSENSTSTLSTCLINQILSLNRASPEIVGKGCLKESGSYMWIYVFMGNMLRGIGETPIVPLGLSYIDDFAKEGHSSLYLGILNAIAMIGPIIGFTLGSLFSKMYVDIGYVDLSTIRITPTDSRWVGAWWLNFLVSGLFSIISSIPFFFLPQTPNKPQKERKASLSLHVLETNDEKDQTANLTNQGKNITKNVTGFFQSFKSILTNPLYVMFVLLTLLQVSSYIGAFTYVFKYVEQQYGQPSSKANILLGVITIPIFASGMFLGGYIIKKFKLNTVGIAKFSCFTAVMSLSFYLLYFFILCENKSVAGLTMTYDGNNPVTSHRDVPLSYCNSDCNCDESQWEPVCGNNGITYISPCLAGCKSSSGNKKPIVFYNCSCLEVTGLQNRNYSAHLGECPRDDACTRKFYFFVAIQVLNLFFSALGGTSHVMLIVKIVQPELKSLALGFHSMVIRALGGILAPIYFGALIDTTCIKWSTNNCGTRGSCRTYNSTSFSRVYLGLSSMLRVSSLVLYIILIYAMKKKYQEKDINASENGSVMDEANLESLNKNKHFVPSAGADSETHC

OATP1B3 = biological target: T3, OATP1B3 (Homo sapiens, UniProt Q9NPD5); assay: Drug uptake in X. laevis oocytes injected with SLCO1B3; assay type: in vitro ADME; details: without human serum albumin, 1 µM (darunavir 3 µM, performed once), 18°C, 1hr, mean ± SD; for Drug uptake, OATP1B3: OATP1B3 cRNA injected oocytes; for Drug uptake, Water: water injected control oocytes (Table 3)
T3 sequence (Q9NPD5 1-702): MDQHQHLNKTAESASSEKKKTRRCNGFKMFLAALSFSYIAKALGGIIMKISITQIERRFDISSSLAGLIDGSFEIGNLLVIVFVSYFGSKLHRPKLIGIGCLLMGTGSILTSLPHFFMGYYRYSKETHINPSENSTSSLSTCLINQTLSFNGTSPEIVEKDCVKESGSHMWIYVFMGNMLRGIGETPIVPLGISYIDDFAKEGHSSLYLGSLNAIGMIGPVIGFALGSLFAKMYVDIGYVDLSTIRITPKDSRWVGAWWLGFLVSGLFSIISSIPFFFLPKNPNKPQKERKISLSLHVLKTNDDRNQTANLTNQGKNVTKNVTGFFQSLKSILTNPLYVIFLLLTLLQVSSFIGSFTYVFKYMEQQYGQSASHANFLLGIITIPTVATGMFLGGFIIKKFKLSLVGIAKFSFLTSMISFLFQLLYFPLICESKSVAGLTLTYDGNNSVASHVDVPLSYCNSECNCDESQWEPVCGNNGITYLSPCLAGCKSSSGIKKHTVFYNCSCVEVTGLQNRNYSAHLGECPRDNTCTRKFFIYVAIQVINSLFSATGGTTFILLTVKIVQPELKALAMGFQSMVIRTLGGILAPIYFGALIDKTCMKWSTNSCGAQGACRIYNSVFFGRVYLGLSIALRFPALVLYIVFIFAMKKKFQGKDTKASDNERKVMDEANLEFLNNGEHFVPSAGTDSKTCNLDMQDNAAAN

[2] = assay type: in vivo, human
OATP1B1 [3] = biological target: T2, OATP1B1; details: HEK 293 cells stably transfected with SLCO1B1; cited from earlier work
[4] = independent variable Age (Years)
[5] = independent variable Coadministered protease inhibitor
[6] = independent variable Male Gender
[7] = independent variable SLCO1A2 38T>C
[8] = independent variable SLCO1A2 516A>C
[9] = independent variable SLCO1B1 388A>G
[10] = independent variable SLCO1B1 521T>C
[11] = independent variable SLCO1B3 334T>G
[12] = independent variable Weight (per 10kg)
[13] = patients on lopinavir/ritonavir 400mg/100mg b.d., samples included in the analysis

## Cc1cccc(C)c1OCC(=O)N[C@@H](Cc1ccccc1)[C@@H](O)C[C@H](Cc1ccccc1)NC(=O)[C@H](C(C)C)N1CCCNC1=O [Lopinavir, lopinavir]
OATP1A2; with 2% human serum albumin
  Drug uptake, OATP1A2: 1.65 ± 0.59 pmol/oocyte
  Drug uptake, Water: 0.82 ± 0.24 pmol/oocyte
OATP1A2; without human serum albumin
  Drug uptake, OATP1A2: 4.07 ± 0.67 pmol/oocyte
  Drug uptake, Water: 2.53 ± 0.36 pmol/oocyte
OATP1B1 [1]; with 2% human serum albumin
  Drug uptake, OATP1B1: 1.14 ± 0.41 pmol/oocyte
  Drug uptake, Water: 0.66 ± 0.22 pmol/oocyte
OATP1B1 [1]; without human serum albumin
  Drug uptake, OATP1B1: 4.31 ± 0.72 pmol/oocyte
  Drug uptake, Water: 2.14 ± 0.43 pmol/oocyte
OATP1B3
  Drug uptake, OATP1B3: 2.30 ± 0.66 pmol/oocyte
  Drug uptake, Water: 1.69 ± 0.78 pmol/oocyte
[2]; in words
  lopinavir Cmin with a SNP located in intron 2 of the SLCO1B1 gene: significantly lower
  median plasma lopinavir Cmin, patients homozygous for the C allele at position 521 of SLCO1B1 compared to T homozygotes or heterozygotes: significantly higher
[2]; [4]
  Univariate effect size on lopinavir C2-6: 6.8%
  Univariate effect size on lopinavir Cmin: 1.1%
[2]; [5]
  Univariate effect size on lopinavir C2-6: −14.9%
  Univariate effect size on lopinavir Cmin: −15.5%
[2]; [6]
  Univariate effect size on lopinavir C2-6: 4.2%
  Univariate effect size on lopinavir Cmin: −5.5%
[2]; [7]
  Univariate effect size on lopinavir C2-6: 5.8%
  Univariate effect size on lopinavir Cmin: 4.7%
[2]; [8]
  Univariate effect size on lopinavir C2-6: 5.4%
  Univariate effect size on lopinavir Cmin: −1.0%
[2]; [9]
  Univariate effect size on lopinavir C2-6: −7.1%
  Univariate effect size on lopinavir Cmin: −7.3%
[2]; [10]
  Univariate effect size on lopinavir C2-6: 12.8%
  Univariate effect size on lopinavir Cmin: 12.2%
[2]; independent variable SLCO1B1 Intron 2 (rs4149032)
  Multivariate effect size on lopinavir Cmin: 0.016 (−11) - %
[2]; independent variable SLCO1B1 Intron 2 (rs4149032), C2-6 = 2-6h post dose
  Univariate effect size on lopinavir C2-6: −4.6%
[2]; independent variable SLCO1B1 Intron 2 (rs4149032), Cmin = 10-14h post dose
  Univariate effect size on lopinavir Cmin: −11.9%
[2]; [11]
  Univariate effect size on lopinavir C2-6: −0.2%
  Univariate effect size on lopinavir Cmin: −1.8%
[2]; [12]
  Multivariate effect size on lopinavir Cmin: −17.2%
  Univariate effect size on lopinavir C2-6: −13.7%
  Univariate effect size on lopinavir Cmin: −17.4%
[2]; multivariate model
  C2-6 higher for each variant allele of SLCO1B1 521T>C: 11.1%
  C2-6 higher in patients receiving an additional protease inhibitor: 14.4%
  Cmin higher in patients receiving an additional protease inhibitor: 15.4%
  Cmin lower for each variant allele of SLCO1B1 rs4149032: 11%
  Cmin lower for every 10 Kg increase in body weight: 17.2%
[2]; [13]
  median lopinavir concentration (plasma): 5072 ng/mL
  range of lopinavir concentration (plasma): 114 to 24432 ng/mL

## CC(C)(C)NC(=O)[C@@H]1C[C@@H]2CCCC[C@@H]2CN1C[C@@H](O)[C@H](Cc1ccccc1)NC(=O)[C@H](CC(N)=O)NC(=O)c1ccc2ccccc2n1 [Saquinavir, saquinavir]
OATP1A2; with 2% human serum albumin
  Drug uptake, OATP1A2: 0.45 ± 0.05 pmol/oocyte
  Drug uptake, Water: 0.27 ± 0.03 pmol/oocyte
OATP1A2; without human serum albumin
  Drug uptake, OATP1A2: 2.16 ± 0.71 pmol/oocyte
  Drug uptake, Water: 1.01 ± 0.21 pmol/oocyte
OATP1B1 [1]; with 2% human serum albumin
  Drug uptake, OATP1B1: 0.64 ± 0.23 pmol/oocyte
  Drug uptake, Water: 0.21 ± 0.06 pmol/oocyte
OATP1B1 [1]; without human serum albumin
  Drug uptake, OATP1B1: 1.78 ± 0.44 pmol/oocyte
  Drug uptake, Water: 0.94 ± 0.26 pmol/oocyte
OATP1B3
  Drug uptake, OATP1B3: 2.17 ± 0.61 pmol/oocyte
  Drug uptake, Water: 1.62 ± 0.45 pmol/oocyte
OATP1B1 [3]
  Inhibition of bilirubin uptake through OATP1B1: inhibit bilirubin uptake
